Literature values in patent US8440424B2, “Identification of antibiotic resistance using labelled antibiotics” (miacom Diagnostics GmbH, priority 2008, dated 2013).
Like-named read-outs stand apart in the source and are kept apart here. Positions of bridges follow the written chain, without caps; N, C: chain ends. Non-standard residues stand in square brackets, D forms with d. Residues, ends and D or L forms follow the SMILES beside them. *: point of attachment. NMePhe(4-NMe2) = CN[C@@H](Cc1ccc(N(C)C)cc1)C(=O)O; Pip(4-oxo) = O=C1CCN[C@H](C(=O)O)C1; Picolinoyl(3-OH) = O=C(c1ncccc1O)*; Phg = N[C@H](C(=O)O)c1ccccc1; dAbu = CC[C@@H](N)C(=O)O

System: 23S rRNA
Conditions: cited from earlier work
[1] = 23S rRNA position 2611 "C to G", Chlamydomonas reinhardtii, Gauthier et al. 1988
[2] = 23S rRNA position 2611 "C to G", Yeast mitochondria, Sor and Fukahara 1984

For `CC[C@H]1OC(=O)[C@H](C)[C@@H](O[C@H]2C[C@@](C)(OC)[C@@H](O)[C@H](C)O2)[C@H](C)[C@@H](O[C@@H]2O[C@H](C)C[C@H](N(C)C)[C@H]2O)[C@](C)(O)C[C@@H](C)C(=O)[C@H](C)[C@@H](O)[C@]1(C)O` [Ery], the Phenotype (23S rRNA double mutation (A2058U/G2032A), E. coli) is given as “hs”, the Phenotype (23S rRNA double mutation (G2032A/A2058U), E. coli) is given as “hs” and the Phenotype (23S rRNA double mutation (G2057A/C2661U), E. coli) is given as “Slightly Eryr;”. For the same compound, the Phenotype (23S rRNA position 2611 "C to G", Chlamydomonas reinhardtii, Harris et al. 1989) was “Eryr”, the Phenotype (23S rRNA position 2611 "C to U", Chlamydomonas reinhardtii, Harris et al. 1989) was “Eryr” and the Phenotype (23S rRNA position 2611 "C to U", double mutation (C2611U/G2057A), E. coli, Vester et al. 1995) was “Slightly Eryr; reduced”.

For `COc1ccc(C[C@H]2NC[C@H](O)[C@H]2OC(C)=O)cc1` [Anisomycin], the Phenotype (23S rRNA position 2447 G to C, Halobacterium halobium, Hummel 1987) is given as “resistance” and the Phenotype (23S rRNA position 2453 A to C, Halobacterium halobium, Hummel 1987) is given as “Anisomycin resistance”.

In the case of spiramycin, the Phenotype [1] is listed as “spiramycin resistance” and the Phenotype [2] is listed as “spiramycin resistance”.

In the case of `O=C(N[C@H](CO)[C@H](O)c1ccc([N+](=O)[O-])cc1)C(Cl)Cl` [CAM], the Phenotype (23S rRNA position 2505 G to C (with A1067U and thiostrepton), E. coli, Saarma 1992, 1993) is given as “Hypersensitivity to CAM;”.

In the case of `C[C@H]1O[C@H](O[C@H]2CC[C@H](n3ccc(NC(=O)c4ccc(NC(=O)[C@@](C)(N)CO)cc4)nc3=O)O[C@@H]2C)[C@H](O)[C@@H](O)[C@@H]1N(C)C` [Amicetin], the Phenotype (23S rRNA position 2438 U to A, Halobacterium halobium, Leviev 1994) is listed as “Amicetin resistance” and the Phenotype (23S rRNA position 2438 U to C, Halobacterium halobium, Leviev 1994) is listed as “Amicetin resistance”.

For `CC[C@H]1OC(=O)[C@H](C)[C@@H](O[C@H]2C[C@@](C)(OC)[C@@H](O)[C@H](C)O2)[C@H](C)[C@@H](O[C@@H]2O[C@H](C)C[C@H](N(C)C)[C@H]2O)[C@](C)(O)C[C@@H](C)C(=O)[C@H](C)[C@@H](O)[C@]1(C)O` [Erythromycin], the Phenotype (23S rRNA double deletion (1230/1231), E. coli) is listed as “Erythromycin sensitive. a Double”, the Phenotype (23S rRNA double mutant (C1207U/C1243U), E. coli) is listed as “Erythromycin resistant. a Double” and the Phenotype (23S rRNA double mutant (C1208U/C1243U), E. coli) is listed as “Erythromycin resistant. a Double”. The Phenotype (23S rRNA double mutant (C1211U/C1208U), E. coli) was “Erythromycin sensitive. a Double”, the Phenotype (23S rRNA double mutant (C1221U/C1229U), E. coli) was “Erythromycin resistant. a Double” and the Phenotype (23S rRNA double mutant (C1221U/C1233U), E. coli) was “Erythromycin resistant. a Double”. The Phenotype (23S rRNA double mutant (C1243U/C1221U), E. coli) was “Erythromycin resistant. a Double”, the Phenotype (23S rRNA double mutant (G1220A/G1239A), E. coli) was “Erythromycin resistant. a Double” and the Phenotype (23S rRNA double mutant (G1232A/G1238A), E. coli) was “Erythromycin sensitive. a Double”. For the same compound, the Phenotype (23S rRNA position 1233 C to U, E. coli) was “Erythromycin sensitive. a”, the Phenotype (23S rRNA position 1234 U to C, E. coli) was “Erythromycin sensitive. a” and the Phenotype (23S rRNA position 1234 del1234/del1235, double mutant (U1234C/del1235), E. coli) was “Erythromycin sensitive. a Double”. The Phenotype (23S rRNA position 2058 A to G, Yeast mitochondria) was “resistance”, the Phenotype [1] was “spiramycin resistance” and the Phenotype [2] was “spiramycin resistance”.

For `CC[C@H]1OC(=O)[C@H](C)[C@@H](O[C@H]2C[C@@](C)(OC)[C@@H](O)[C@H](C)O2)[C@H](C)[C@@H](O[C@@H]2O[C@H](C)C[C@H](N(C)C)[C@H]2O)[C@](C)(OC)C[C@@H](C)C(=O)[C@H](C)[C@@H](O)[C@]1(C)O` [Clarithomycin], the Phenotype (23S rRNA position 2059 A to G, Helicobacter pylori) is listed as “resistance”.

In the case of `O=C(N[C@H](CO)[C@H](O)c1ccc([N+](=O)[O-])cc1)C(Cl)Cl` [chloramphenicol], the Phenotype (23S rRNA position 2505 G to A, E. coli, Hansen 1999) is listed as “Conferred resistance to”.

In the case of `COc1ccc(C[C@H]2NC[C@H](O)[C@H]2OC(C)=O)cc1` [Animosycin], the Phenotype (23S rRNA position 2452 C to U, Halobacterium, Hummel 1987) is given as “Animosycin resistance” and the Phenotype (23S rRNA position 2452 C to U, Tetrahymena thermophilia, Sweeney 1991) is given as “Animosycin resistance”.

In the case of `O=C(N[C@H](CO)[C@H](O)c1ccc([N+](=O)[O-])cc1)C(Cl)Cl` [Chloramphenicol], the Phenotype (23S rRNA position 2061 G to A, Rat mitochondria) is given as “resistance”, the Phenotype (23S rRNA position 2062 A to C, Halobacterium halobium) is given as “resistance” and the Phenotype (23S rRNA position 2447 G to A, Yeast mitochondria, Dujon 1980) is given as “resistance”. The Phenotype (23S rRNA position 2451 A to U, Mouse mitochondria, Kearsey 1981) was “resistance”, the Phenotype (23S rRNA position 2452 C to A, Human mitochondria, Blanc 1981) was “resistance” and the Phenotype (23S rRNA position 2452 C to U, Halobacterium halobium, Mankin 1991) was “resistance”. The Phenotype (23S rRNA position 2452 C to U, Mouse mitochondria, Slott 1983) was “resistance”, the Phenotype (23S rRNA position 2503 A to C, Yeast mitochondria, Dujon 1980) was “resistance” and the Phenotype (23S rRNA position 2504 U to C, Human mitochondria, Kearsey 1981) was “resistance”. The Phenotype (23S rRNA position 2504 U to C, Mouse mitochondria, Blanc 1981) was “resistance”.

For `CC[C@H]1NC(=O)[C@@H](NC(=O)c2ncccc2O)[C@@H](C)OC(=O)[C@H](c2ccccc2)NC(=O)[C@@H]2CC(=O)CCN2C(=O)[C@H](Cc2ccc(N(C)C)cc2)N(C)C(=O)[C@@H]2CCCN2C1=O` [pristinamycin 1A] ({Picolinoyl(3-OH)}-T[dAbu]P[NMePhe(4-NMe2)][Pip(4-oxo)][Phg]; ester 1-C), the Phenotype (23S rRNA A2602C/C2501A, E. coli, binding on peptidyl transferase loop, Porse 1999) is listed as “Inhibits binding of 1A” and the Phenotype (23S rRNA U2500A/C2501A, E. coli, binding on peptidyl transferase loop, Porse 1999) is listed as “Inhibits binding of 1A”.

In the case of `CSC[S@+]([O-])C[C@H](CO)NC(=O)/C=C/c1c(C)[nH]c(=O)[nH]c1=O` [sparsomycin], the “Phenotype (level of resistance)” value (23S rRNA position 2452 C to U, Halobacterium halobium, Tan 1996) is listed as “Low level sparsomycin”.
